Biological target: Chymotrypsinogen A (Bos taurus) (UniProt P00766)
Assay: Inhibition of chymotrypsin-catalyzed hydrolysis of BzTyr p-nitroanilide by compound at pH 5

Ki: > 8 mM
Structure (SMILES): CC(=O)N[C@@H](C)C(=O)NN=CCNC(=O)c1ccccc1

— BindingDB's records for doi:10.1021/jm00126a018 (Amherst College, 1989)
